Measured values from ChEMBL document CHEMBL1150533, “Inhibitors of the adenovirus type 2 proteinase based on substrate-like tetrapeptide nitriles” (Bioorg Med Chem Lett, 1995).
pIC50, pKi: −log10 of the molar value. Peptide text beside a SMILES is read from it. * marks the point of attachment. Cbz = O=C(OCc1ccccc1)*; Boc = CC(C)(C)OC(=O)*; N(Me)OMe = CON(C)*; OtBu = CC(C)(C)O*; NMeEt = CCN(C)*

Tests used:
Assay type in all cases: functional
Human adenovirus 2 [1] = assay: Compound was tested for inhibition of Adenovirus type 2 proteinase; showed no inhibitory activity; parameters: concentration or dose not given beside the values
Human adenovirus 2 [2] = assay: Compound was tested for inhibition of Adenovirus type 2 proteinase; Not very soluble and inactive at maximum soluble concentration
Human adenovirus 2 [3] = assay: Inhibitory activity against Adenovirus type 2 proteinase; parameters: concentration or dose not given beside the values
Human adenovirus 2 [4] = assay: Compound was tested for noncompetitive inhibition of Adenovirus type 2 proteinase
Human adenovirus 2 [5] = assay: Compound was tested for inhibition of Adenovirus type 2 proteinase; conditions: Human mastadenovirus C
Human adenovirus 2 [6] = assay: Inhibitory activity against Adenovirus type 2 proteinase; showed no inhibitory activity

Compound	Inhibition (Human adenovirus 2 [1]) [%]	Inhibition (Human adenovirus 2 [3]) [%]	other results
N#CCNC(=O)CNC(=O)C(F)(F)F	0		
CNC(=O)CNC(=O)CNC(=O)[C@H](C)NC(=O)[C@H](CC(C)C)NC(=O)OCc1ccccc1 (Cbz-LAGG-NHMe)			Inhibition (Human adenovirus 2 [2]): 0%
CON(C)C(=O)CNC(=O)CNC(=O)[C@H](C)NC(=O)[C@H](CC(C)C)NC(=O)OCc1ccccc1 (Cbz-LAGG-{N(Me)OMe})	0		
CC(C)C[C@H](N)C(=O)N[C@@H](C)C(=O)NCC(=O)NCC(N)=O (H-LAGG-NH2)	0		
COC(=O)CNC(=O)CNC(=O)[C@H](C)NC(=O)[C@H](CC(C)C)NC(=O)OCc1ccccc1 (Cbz-LAGG-OMe)		72	
Cl.N#CCN	0		
CC(C)C[C@H](NC(=O)OCc1ccccc1)C(=O)N[C@@H](C)C(=O)NCC(=O)NCC(N)=O (Cbz-LAGG-NH2)			Inhibition (Human adenovirus 2 [2]): 0%
CCOC(=O)CNC(=O)CNC(=O)[C@H](C)NC(=O)[C@H](CC(C)C)NC(=O)OCc1ccccc1 (Cbz-LAGG-OEt)		67	
CC(C)C[C@H](NC(=O)OCc1ccccc1)C(=O)N[C@@H](C)C(=O)NCC(=O)NCC(=O)N(C)C (Cbz-LAGG-NMe2)	0		
CNC(=O)CNC(=O)CNC(=O)[C@H](C)NC(=O)[C@@H](N)CC(C)C (H-LAGG-NHMe)	0		
COC(CNC(=O)CNC(=O)[C@H](C)NC(=O)[C@H](CC(C)C)NC(=O)OCc1ccccc1)OC		59	pKi (Human adenovirus 2 [4]): 3.42; pIC50 (Human adenovirus 2 [5]): 3.40
COC(CNC(=O)CNC(=O)[C@H](C)NC(=O)[C@H](CC(C)C)NC(=O)OC(C)(C)C)OC		59	pIC50 (Human adenovirus 2 [5]): 2.74
CC(C)C[C@H](NC(=O)C(F)(F)F)C(=O)N[C@@H](C)C(=O)NCC(=O)NCC#N		50	pIC50 (Human adenovirus 2 [5]): 2.16
CC(C)C[C@H](NC(=O)OCc1ccccc1)C(=O)N[C@@H](C)C(=O)NCC(=O)NCC(=O)O (Cbz-LAGG-OH)			Inhibition (Human adenovirus 2 [6]): 0%
CCN(C)C(=O)CNC(=O)CNC(=O)[C@H](C)NC(=O)[C@H](CC(C)C)NC(=O)OCc1ccccc1 (Cbz-LAGG-NMeEt)	0		
CC(C)C[C@H](NC(=O)OC(C)(C)C)C(=O)N[C@@H](C)C(=O)NCC(=O)NCC(=O)OC(C)(C)C (Boc-LAGG-OtBu)		40	
C[C@H](NC(=O)C(F)(F)F)C(=O)NCC(=O)NCC#N		5	
CC(C)C[C@H](NC(=O)OCc1ccccc1)C(=O)N[C@@H](C)C(=O)NCC(=O)NCC#N		95	pKi (Human adenovirus 2 [4]): 4.80; pIC50 (Human adenovirus 2 [5]): 5.00
